Counter-ions that a name gives are not always drawn. Like-named read-outs stand apart in the source and are kept apart here.
Tested on: Xenopus embryos
Conditions: for Type of edema Ventral: ‡ = edemas also detected in the gut; for Type of edema Periocular: * = causing bulging eyes, # = bilateral, causing narrow-set eyes
Protocol: 10-μl aliquots of the chemicals were transferred from the mother plates with a liquid handling robot (Aquarius, Tecan) into 96-well tissue culture plates to generate diluted stock plates (2 mM in DMSO; 50 μl final volume). […] Once embryos reached stage 31 (37 hpf), 10-μl aliquots of the diluted chemicals were added to the wells. […] Negative control wells contained embryos in screening medium and 0.1×MMR only. Embryos were treated with the chemicals in a humidified incubator at 23° C. over a timeframe of 4 days. Embryos were manually scored for the presence of edema or other morphological phenotypes using a teaching dissecting microscope (SV6; Carl Zeiss). Two investigators performed separately the scoring daily at stages 39 (56 hpf), 41 (76 hpf), 45 (98 hpf), and 47 (120 hpf). Dead embryos were removed and 100 μl of water was added daily to each well to compensate for fluid evaporation. […] For imaging at the end of the experiments. Xenopus tadpoles were anesthetized with 0.05% tricaine (Sigma #A5040) in 0.1×MMR. Images were captured using a stereomicroscope (SteREO Lumar V12; Carl Zeiss) equipped with a digital camera (AxioCam Color; Carl Zeiss).
Xenopus late tailbud embryos at stage 31 (37 hpf) were selected for compound treatment. […] Embryos were arrayed into 48-well dishes (five per well) and treated with test compounds at a concentration of 20 μM in the presence of 1% DMSO. […] All 48-well dishes also contained replicates of negative controls (1% DMSO). Embryos were monitored daily over a period of four days for edema formation. In addition, drug-induced lethality and other externally visible phenotypes were scored. On average, 320 compounds were screened per week.

[1] = compounds causing lethality, 20 μM, 1% DMSO, treatment from stage 31, Nieuwkoop & Faber stage
[2] = compounds causing cytotoxicity, 20 μM, 1% DMSO, treatment from stage 31, Nieuwkoop & Faber stage
[3] = compounds causing edema, 20 μM, 1% DMSO, treatment from stage 31, scored to stage 47
[4] = onset of edema, 20 μM, 1% DMSO, treatment from stage 31, Nieuwkoop & Faber stage
[5] = embryonic stage, — = no stage of lethality given
[6] = onset of pigmentation defects, 20 μM, 1% DMSO
[7] = compounds causing other phenotypic defects, 20 μM, scored to stage 47
[8] = onset of other phenotypic defects, 20 μM, 1% DMSO

Compound: CC(C)Cc1ccc(C(C)C(=O)O)cc1 (racemic) [(±)-Ibuprofen, alpha-Methyl-4-(isobutyl)phenylacetic acid]
- Lethality (NF) (Xenopus laevis, in vivo): 45 NF

Compound: O=C(O)CCCCC1CCSS1 (racemic) [(±)-alpha-Lipoic Acid]
- Type of edema Pericordial (embryonic stage): 39 embryonic stages according to Nieuwkoop and Faber (NF)
- Type of edema Pronephric (embryonic stage): 42 embryonic stages according to Nieuwkoop and Faber (NF)

Compound: CCCCCCCCCCCCCCCCCC(=O)OC(CC(=O)O)C[N+](C)(C)C.[Cl-] (racemic) [DL-Stearoylcarnitine chloride]
- Lethality (NF) [1]: 41 NF

Compound: CCCCCCCCCCCCCCCC(=O)OC(CC(=O)O)C[N+](C)(C)C.[Cl-] (racemic) [Palmitoyl-DL-Carnitine chloride]
- Lethality (NF) [2]: 32 NF

Compound: CCCCCCCCCCCCCCCC(=O)NCC(COP(=O)([O-])OCC[N+](C)(C)C)OCC (racemic) [rac-2-Ethoxy-3-hexadecanamido-1-propylphosphocholine]
- Lethality (NF) [2]: 32 NF

Compound: CCCCCCCCCCCCCCCCCC(=O)NCC(COP(=O)([O-])OCC[N+](C)(C)C)OCC (racemic) [rac-2-Ethoxy-3-octadecanamido-1-propylphospocholine]
- Lethality (NF) [2]: 32 NF

Compound: O.c1cnc2c(c1)ccc1cccnc12 [1,10-Phenanthroline monohydrate]
- Lethality (NF) [3]: 46 NF
- Onset (NF) [4]: 39/40

Compound: O.c1cnc2c(c1)ccc1cccnc12 [1,10-Phenenthroline monohydrate]
- Type of edema Pericordial (embryonic stage): 39/40
- Lethality [5]: 46 embryonic stages according to Nieuwkoop and Faber (NF)
- Type of edema Ventral (embryonic stage): 41/42

Compound: S=C(Nc1ccccc1)Nc1nccs1 [1-Phenyl-3-(2-thiazolyl)-2-thiourea]
- Onset (NF) [6]: 33/34

Compound: COC1=C(OC)C(=O)c2ccccc2C1=O [2,3-Dimethoxy-1,4-naphthoquinone]
- Lethality (NF) [7]: 42 NF

Compound: C[N+](C)(C)CCC(=O)c1cccc2ccccc12.[I-] [2-(alpha-Naphthoyl)ethyltrimethylammonium iodide]
- Lethality (NF) [2]: 32 NF

Compound: N#CCCN.N#CCCN.O=C(O)/C=C/C(=O)O [3-Aminopropionitrile fumarate]
- Onset (NF) [8]: 46 NF

Compound: O=C(O)c1cc([N+](=O)[O-])ccc1NCCCc1ccccc1 [5-Nitro-2-(3-phenylpropylamino)benzoic acid]
- Lethality (NF) [2]: 32 NF

Compound: O=c1[nH]c2ccccc2c2ccccc12 [6(5H-Phenanthridinone, 6(5H)-Phenanthridinone]
- Lethality (NF) [3]: 47 NF
- Type of edema Pericordial (embryonic stage): 45 embryonic stages according to Nieuwkoop and Faber (NF)
- Type of edema Periocular (embryonic stage): 45 embryonic stages according to Nieuwkoop and Faber (NF)
- Lethality [5]: 47 embryonic stages according to Nieuwkoop and Faber (NF)
- Type of edema Ventral (embryonic stage): 45 embryonic stages according to Nieuwkoop and Faber (NF)

Compound: CC1=C(/C=C/C(C)=C/C=C/C(C)=C\C(=O)O)C(C)(C)CCC1 [13-cis-retinoic acid]
- Lethality (NF) [3]: 46 NF
- Type of edema Pronephric (embryonic stage): 45 embryonic stages according to Nieuwkoop and Faber (NF)
- Type of edema Cerebral (embryonic stage, + = cerebral edema extending dorso-anteriorly and displacing the eyes): 45+ embryonic stages according to Nieuwkoop and Faber (NF)
- Lethality [5]: 46 embryonic stages according to Nieuwkoop and Faber (NF)
- Type of edema Ventral (embryonic stage): 41/42
- Onset (NF) [4]: 41/42

Compound: CC[C@@H]1Cc2cc(O)ccc2C2=C1c1ccc(O)cc1C[C@H]2CC [(5R, 11R)-5,11-Diethyl-5,6,11,12-tetrahydro-2,8-chrysenediol]
- Lethality (NF) [1]: 41 NF

Compound: CN[C@@H](C)[C@H](O)c1ccccc1.CN[C@@H](C)[C@H](O)c1ccccc1.O=S(=O)(O)O [(-)-Ephedrine hemisulfate]
- Onset (NF) [6]: 33/34

Compound: CS(=O)(=O)O.Cc1c(C(=O)c2cccc3ccccc23)c2cccc3c2n1[C@H](CN1CCOCC1)CO3 [(R)-(+)-WIN 55,212-2 mesylate, (R)-(+)-[2,3-Dihydro-5-methyl-3[(morpholinyl)methyl]pyrrolo[1,2,3-de]-1,4-benzoxazinyl]-(1-naphthalenyl)methanone mesylate]
- Lethality (NF) [2]: 32 NF

Compound: CC[C@@]1(O)C(=O)OCc2c1cc1n(c2=O)Cc2cc3ccccc3nc2-1 [(S)-(+)-Camptothecin]
- Lethality (NF) [7]: 41/42
- Onset (NF) [8]: 39 NF

Compound: CCn1cc(C(=O)O)c(=O)c2ccc(Cc3ccccc3)nc21 [Amfonelic acid, 7-Benzyl-1-ethyl-1,4-dihydro-4-oxo-1,8-naphthyridine-3-carboxylic acid]
- Onset (NF) [6]: 33/34

Compound: CCNC(=O)N1CCN(CCCC(c2ccc(F)cc2)c2ccc(F)cc2)CC1.Cl [Amperozide hydrochloride, 4-[4,4-bis(4-Fluorophenyl)butyl]-N-ethyl-1-piperazinecarboxamide hydrochloride]
- Type of edema Pericordial (embryonic stage): 41/42
- Type of edema Periocular (embryonic stage): 45 embryonic stages according to Nieuwkoop and Faber (NF)
- Type of edema Ventral (embryonic stage): 41/42
- Onset (NF) [4]: 41/42

Compound: CN1CCc2cccc3c2[C@H]1Cc1ccc(O)c(O)c1-3 [Apomorphine hydrochloride hemihydrate, 10,11-Dihydroxyaporphine hydrochloride hemihydrate]
- Onset (NF) [6]: 33/34

Compound: CC(C)(C)c1ccc(S(=O)(=O)/C=C/C#N)cc1 [Bay 11-7085, (E)-3-(4-t-Butylphenylsulfortyl)-2-propenenitrile]
- Lethality (NF) [2]: 32 NF

Compound: C[C@H]1CCC/C=C/[C@@H]2C[C@H](O)C[C@H]2[C@H](O)/C=C/C(=O)O1 [Brefeldin A]
- Lethality (NF) [2]: 33/34

Compound: Nc1nc2ccc(Cl)cc2c2nc(-c3ccco3)nn12 [CGS -15943]
- Type of edema Pericordial (embryonic stage): 41/42
- Type of edema Pronephric (embryonic stage): 45 embryonic stages according to Nieuwkoop and Faber (NF)
- Type of edema Ventral (embryonic stage): 45 embryonic stages according to Nieuwkoop and Faber (NF)
- Lethality (in vivo): 46 embryonic stages according to Nieuwkoop and Faber (NF)

Compound: Nc1nc2ccc(Cl)cc2c2nc(-c3ccco3)nn12 [CGS-15943, 9-Chloro-2-(2-furyl)[1,2,4]triazolo[1,5-c]quinazolin-5-amine]
- Lethality (NF) (Xenopus laevis, in vivo): 46 NF
- Onset (NF) (in vivo): 41/42

Compound: O=C(/C=C/c1ccc(O)c(O)c1)OCCc1ccccc1 [Caffeic acid phenethyl ester]
- Lethality (NF) (compounds causing pigmentation defects, 20 μM, scored to stage 47): 39 NF
- Onset (NF) [6]: 33/34

Compound: CNc1ccc2oc(C[C@H]3O[C@@]4(CC[C@H]3C)O[C@H]([C@H](C)C(=O)c3ccc[nH]3)[C@H](C)C[C@H]4C)nc2c1C(=O)O [Calcimycin]
- Lethality (NF) [2]: 32 NF

Compound: CC1(C(=O)O)C2CCC(O2)C1(C)C(=O)O (stereo not drawn) [Cantharidic Acid]
- Lethality (NF) [2]: 32 NF

Compound: C[C@@]12C(=O)OC(=O)[C@]1(C)[C@H]1CC[C@@H]2O1 [Cantharidin]
- Lethality (NF) [2]: 32 NF

Compound: CN1CCC[C@@H]1CCO[C@](C)(c1ccccc1)c1ccc(Cl)cc1 [Clemastine fumarate]
- Type of edema Pericordial (embryonic stage): 46 embryonic stages according to Nieuwkoop and Faber (NF)
- Type of edema Periocular (embryonic stage): 46 embryonic stages according to Nieuwkoop and Faber (NF)
- Type of edema Ventral (embryonic stage): 45 embryonic stages according to Nieuwkoop and Faber (NF)

Compound: S=C(OC1CC2CC1C1CCCC21)[S][K] [D-609 potassium, Carbonodithioic acid, O-(octahydro-4,7-methano-1H-inden-5-yl) ester potassium]
- Lethality (NF) [2]: 33/34

Compound: O=c1c2ccccc2[nH]c(=S)n1CCN1CCC(=C(c2ccc(F)cc2)c2ccc(F)cc2)CC1 [Diacylglycerol Kinase Inhibitor II]
- Type of edema Pronephric (embryonic stage): 45 embryonic stages according to Nieuwkoop and Faber (NF)
- Type of edema Periocular (embryonic stage): 46 embryonic stages according to Nieuwkoop and Faber (NF)
- Type of edema Ventral (embryonic stage): 41/42
- Onset (NF) [4]: 41/42

Compound: Cc1nc2sccn2c(=O)c1CCN1CCC(=C(c2ccccc2)c2ccc(F)cc2)CC1 [Diacylglycerol kinase inhibitor I]
- Type of edema Periocular (embryonic stage): 45 embryonic stages according to Nieuwkoop and Faber (NF)
- Type of edema Ventral (embryonic stage): 45 embryonic stages according to Nieuwkoop and Faber (NF)
- Onset (NF) [4]: 45 NF

— patent US9945845B2, “Methods of screening using amphibians” (priority 2009, dated 2018)
